Here are results for 12 molecules from patent US20200069648A1, “HALOALLYLAMINE PYRAZOLE DERIVATIVE INHIBITORS OF LYSYL OXIDASES AND USES THEREOF” (Pharmaxis Ltd., priority 2017, published 2020).

The IC50 is the concentration that inhibits the measured activity by half. The melting point is the temperature of the solid-liquid transition.

Where a name gives a salt, the structure may show the parent alone. Where only a bound is given, the exact number is not on record here.

One series addresses T1, Bovine LOX (Bos taurus, UniProt P33072).
T1 sequence (P33072 170-418): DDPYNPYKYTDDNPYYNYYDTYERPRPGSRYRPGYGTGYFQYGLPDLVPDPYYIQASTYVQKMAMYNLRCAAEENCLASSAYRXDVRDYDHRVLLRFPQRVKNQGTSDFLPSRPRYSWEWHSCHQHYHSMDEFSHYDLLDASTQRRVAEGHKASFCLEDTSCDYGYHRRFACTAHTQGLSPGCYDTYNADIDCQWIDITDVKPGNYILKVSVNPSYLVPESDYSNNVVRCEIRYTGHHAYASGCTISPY
Put plainly: LOX amine oxidase inhibition, peroxidase-coupled Amplex Red assay. Particulars: 30 min preincubation at 37° C., putrescine substrate. The format is biochemical. An excerpt:
(§1) Method to Determine the Ability of Compounds of the Invention to Inhibit LOX and LOXL1-4 from Different Sources
Lysyl oxidase (LOX) is an extracellular copper dependent enzyme which oxidizes peptidyl lysine and hydroxylysine residues in collagen and lysine residues in elastin to produce peptidyl alpha-aminoadipic-delta-semialdehydes. […] There are five LOX family members; these are LOX, LOXL1, LOXL2, LOXL3 and LOXL4. LOX and LOXL family members can be acquired as recombinant active proteins from commercial sources, or extracted from animal tissues like bovine aorta, tendons, pig skin; or prepared from cell cultures. The inhibitory effects of the compounds of the present invention were tested against the given LOX-LOXL preparation using a high-throughput coupled colorimetric method (Holt A. and Palcic M., A peroxidase-coupled continuous absorbance plate-reader assay for flavin monoamine oxidases, copper-containing amine oxidases and related enzymes. Nat. Protoc. 2006; 1: 2498-2505). The assay was developed using either 384 or 96 well format. Briefly, in a standard 384 well plate assay 25 μL of a dilution of any of the isoenzymes and orthologues in 1.2 M urea, 50 mM sodium borate buffer (pH 8.2) were added into each well in the presence of 1 μM mofegiline and 0.5 mM pargyline (to inhibit SSAO and MAO-B and MAO-A, respectively). […] Twenty five μL of a reaction mixture containing twice the KM concentration of putrescine (Sigma Aldrich, e.g. 20 mM for LOX, or 10 mM for LOXL2 and LOXL3), 120 μM Amplex Red (Sigma Aldrich) and 1.5 U/mL horseradish peroxidase (Sigma Aldrich) prepared in 1.2 M urea, 50 mM sodium borate buffer (pH 8.2) were then added to the corresponding wells. The above volumes were doubled in the case of 96 wells plate. The fluorescence (RFU) was read every 2.5 min for 30 min at a range of temperatures from 37° to 45° C., excitation 565 nm and emission 590 (Optima; BMG labtech). The slope of the kinetics for each well was calculated using MARS data analysis software (BMG labtech) and this value was used to deduce the IC50 value (Dotmatics).
`Cc1nn(C/C(F)=C/CN)c(C(C)O)c1Cc1ccc(S(=O)(=O)N(C)C)c(Cl)c1` (centres unmarked) [Compound 36, (Z)-4-((1-(4-amino-2-fluorobut-2-en-1-yl)-5-(1-hydroxyethyl)-3-methyl-1H-pyrazol-4-yl)methyl)-2-chloro-N,N-dimethylbenzenesulfonamide] came in with an IC50 above 10 µM.

The target of another series is T2, Human LOXL2 (Homo sapiens, UniProt Q9Y4K0).
T2 sequence (Q9Y4K0 26-774): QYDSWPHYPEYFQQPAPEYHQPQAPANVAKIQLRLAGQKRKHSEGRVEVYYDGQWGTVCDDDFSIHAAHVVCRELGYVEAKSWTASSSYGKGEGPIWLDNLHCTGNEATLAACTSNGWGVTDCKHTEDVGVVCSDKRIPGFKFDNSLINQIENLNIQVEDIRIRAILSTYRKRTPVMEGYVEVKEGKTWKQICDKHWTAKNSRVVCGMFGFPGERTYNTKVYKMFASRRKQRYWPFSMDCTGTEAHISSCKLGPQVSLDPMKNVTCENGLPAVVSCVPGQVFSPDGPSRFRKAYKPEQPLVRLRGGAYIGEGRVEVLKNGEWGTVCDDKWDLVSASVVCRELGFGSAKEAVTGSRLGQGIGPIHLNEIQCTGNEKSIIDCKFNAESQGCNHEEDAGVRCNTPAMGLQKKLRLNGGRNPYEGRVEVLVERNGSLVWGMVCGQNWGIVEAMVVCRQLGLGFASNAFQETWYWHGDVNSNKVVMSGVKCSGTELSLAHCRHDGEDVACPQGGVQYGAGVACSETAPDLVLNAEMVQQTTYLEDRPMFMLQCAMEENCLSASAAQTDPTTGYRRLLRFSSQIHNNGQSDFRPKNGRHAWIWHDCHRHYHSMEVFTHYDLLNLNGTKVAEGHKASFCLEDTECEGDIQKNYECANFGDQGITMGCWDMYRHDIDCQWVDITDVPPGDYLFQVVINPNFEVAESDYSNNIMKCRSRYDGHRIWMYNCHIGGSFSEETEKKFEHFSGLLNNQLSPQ
Put plainly: LOXL2 amine oxidase inhibition, peroxidase-coupled Amplex Red assay. Particulars: 30 min preincubation at 37° C., putrescine substrate. The format is biochemical.
Description: as §1
Lysyl oxidase (LOX) is an extracellular copper dependent enzyme which oxidizes peptidyl lysine and hydroxylysine residues in collagen and lysine residues in elastin to produce peptidyl alpha-aminoadipic-delta-semialdehydes. […] There are five LOX family members; these are LOX, LOXL1, LOXL2, LOXL3 and LOXL4. LOX and LOXL family members can be acquired as recombinant active proteins from commercial sources, or extracted from animal tissues like bovine aorta, tendons, pig skin; or prepared from cell cultures. The inhibitory effects of the compounds of the present invention were tested against the given LOX-LOXL preparation using a high-throughput coupled colorimetric method (Holt A. and Palcic M., A peroxidase-coupled continuous absorbance plate-reader assay for flavin monoamine oxidases, copper-containing amine oxidases and related enzymes. Nat. Protoc. 2006; 1: 2498-2505). The assay was developed using either 384 or 96 well format. Briefly, in a standard 384 well plate assay 25 μL of a dilution of any of the isoenzymes and orthologues in 1.2 M urea, 50 mM sodium borate buffer (pH 8.2) were added into each well in the presence of 1 μM mofegiline and 0.5 mM pargyline (to inhibit SSAO and MAO-B and MAO-A, respectively). Test compounds were dissolved in DMSO and tested in a Concentration Response Curve (CRC) with 11 data points, typically in the micromolar or nanomolar range after incubation with the enzyme for 30 min at 37° C. Twenty five μL of a reaction mixture containing twice the KM concentration of putrescine (Sigma Aldrich, e.g. 20 mM for LOX, or 10 mM for LOXL2 and LOXL3), 120 μM Amplex Red (Sigma Aldrich) and 1.5 U/mL horseradish peroxidase (Sigma Aldrich) prepared in 1.2 M urea, 50 mM sodium borate buffer (pH 8.2) were then added to the corresponding wells. The above volumes were doubled in the case of 96 wells plate. The fluorescence (RFU) was read every 2.5 min for 30 min at a range of temperatures from 37° to 45° C., excitation 565 nm and emission 590 (Optima; BMG labtech). The slope of the kinetics for each well was calculated using MARS data analysis software (BMG labtech) and this value was used to deduce the IC50 value (Dotmatics).
Turning to `Cc1nn(C/C(F)=C/CN)c(C(C)O)c1Cc1ccc(S(=O)(=O)N(C)C)c(Cl)c1` (centres unmarked) [Compound 36, (Z)-4-((1-(4-amino-2-fluorobut-2-en-1-yl)-5-(1-hydroxyethyl)-3-methyl-1H-pyrazol-4-yl)methyl)-2-chloro-N,N-dimethylbenzenesulfonamide], the IC50 is below 1 µM.

The target of a further series is T3, Recombinant human MAO-B (Homo sapiens, UniProt P27338).
T3 construct: purchased Sigma Aldrich
T3 sequence (P27338 1-520): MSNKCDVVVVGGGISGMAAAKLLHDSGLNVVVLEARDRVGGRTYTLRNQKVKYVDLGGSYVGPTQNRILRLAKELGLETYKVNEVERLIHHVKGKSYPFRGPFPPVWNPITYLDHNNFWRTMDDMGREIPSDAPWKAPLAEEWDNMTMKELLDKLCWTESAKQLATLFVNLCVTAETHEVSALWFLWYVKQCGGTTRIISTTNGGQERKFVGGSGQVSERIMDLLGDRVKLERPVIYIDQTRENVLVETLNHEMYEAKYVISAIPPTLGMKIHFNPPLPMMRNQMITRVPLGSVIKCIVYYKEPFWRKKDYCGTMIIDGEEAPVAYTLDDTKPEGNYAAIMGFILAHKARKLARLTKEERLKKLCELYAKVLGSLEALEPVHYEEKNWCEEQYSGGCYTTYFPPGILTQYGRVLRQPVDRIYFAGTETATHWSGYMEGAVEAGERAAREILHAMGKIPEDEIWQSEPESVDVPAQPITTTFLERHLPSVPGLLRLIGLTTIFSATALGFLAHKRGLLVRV
Put plainly: Human recombinant MAO-B inhibition. It is filed as biochemical. The settings on record: benzylamine 100 μM. The protocol:
Method to Determine the Ability of Compounds of Formula I to Inhibit Human Recombinant MAO-B
The specificity of the compounds of this invention was tested by determining their ability to inhibit MAO-B activities in vitro. Recombinant human MAO-B (0.06 mg/mL; Sigma Aldrich) was used as source of MAO-B enzyme activities. The assay was performed in a similar way as for human SSAO/VAP-1 (Example 46) except, the substrate benzylamine was used at 100 μM.
As to `Cc1nn(C/C(F)=C/CN)c(C(C)O)c1Cc1ccc(S(=O)(=O)N(C)C)c(Cl)c1` (centres unmarked) [Compound 36, (Z)-4-((1-(4-amino-2-fluorobut-2-en-1-yl)-5-(1-hydroxyethyl)-3-methyl-1H-pyrazol-4-yl)methyl)-2-chloro-N,N-dimethylbenzenesulfonamide], the IC50 was above 30 µM.

Tested on in the next series: not given
Assay: not given
Details: not given
Molecule `Cc1nn(C/C(F)=C/CN)c(C)c1Cc1ccc(S(=O)(=O)N(C)C)cc1Cl` (as salt: hydrochloride) [Compound 3, (Z)-4-((1-(4-amino-2-fluorobut-2-en-1-yl)-3,5-dimethyl-1H-pyrazol-4-yl)methyl)-3-chloro-N,N-dimethylbenzenesulfonamide hydrochloride] displayed a melting point of 185 to 187 °C.

For the molecule `Cc1nn(C/C(F)=C/CN)c(C(=O)N(C)C)c1Cc1ccc(S(=O)(=O)N(C)C)cc1` (as salt: hydrochloride) [Compound 29, (Z)-1-(4-amino-2-fluorobut-2-enyl)-4-(4-(N,N-dimethylsulfamoyl)benzyl)-N,N,3-trimethyl-1H-pyrazole-5-carboxamide hydrochloride], the melting point was in the range of 77 to 80 °C.

The molecule `Cc1nn(C/C(F)=C/CN)c(C)c1Cc1ccc(S(=O)(=O)N2CCOCC2)cc1` (as salt: hydrochloride) [Compound 6, (Z)-4-(3,5-dimethyl-4-(4-(morpholinosulfonyl)benzyl)-1H-pyrazol-1-yl)-3-fluorobut-2-en-1-amine hydrochloride] yielded a melting point of 190 to 197 °C.

Molecule `CNS(=O)(=O)c1ccc(Cn2nc(C)c(C/C(F)=C/CN)c2C)c(C(F)(F)F)c1` (as salt: hydrochloride) [Compound 23, (Z)-4-((4-(4-amino-2-fluorobut-2-en-1-yl)-3,5-dimethyl-1H-pyrazol-1-yl)methyl)-N-methyl-3-(trifluoromethyl)benzenesulfonamide hydrochloride] returned a melting point of 171 to 172 °C.

Molecule `Cc1c(Cc2ccc(S(=O)(=O)N(C)C)cc2)c(C(=O)O)nn1C/C(F)=C/CN` (as salt: hydrochloride) [Compound 31, (Z)-1-(4-amino-2-fluorobut-2-enyl)-4-(4-(N,N-dimethylsulfamoyl)benzyl)-5-methyl-1H-pyrazole-3-carboxylic acid hydrochloride] displayed a melting point of 262 to 264 °C.

Regarding `Cc1nn(C/C(F)=C/CN)c(C)c1Cc1ccc(S(C)(=O)=O)c(Cl)c1` (as salt: hydrochloride) [Compound 16, (Z)-4-(4-(3-chloro-4-(methylsulfonyl)benzyl)-3,5-dimethyl-1H-pyrazol-1-yl)-3-fluorobut-2-en-1-amine hydrochloride], the melting point was 105 to 115 °C.

Regarding `Cc1nn(C/C(F)=C/CN)c(C)c1Cc1ccc(S(=O)(=O)N(C)C)cc1` (as salt: hydrochloride) [Compound 2, (Z)-4-((1-(4-amino-2-fluorobut-2-en-1-yl)-3,5-dimethyl-1H-pyrazol-4-yl)methyl)-N,N-dimethylbenzenesulfonamide hydrochloride], the melting point lay within 209 to 211 °C.

In turn, `Cc1nn(C/C(F)=C/CN)c(C)c1Cc1ccc(S(=O)(=O)N(C)C)c2ccccc12` (as salt: hydrochloride) [Compound 9, (Z)-4-((1-(4-amino-2-fluorobut-2-en-1-yl)-3,5-dimethyl-1H-pyrazol-4-yl)methyl)-N,N-dimethyl naphthalene-1-sulfonamide hydrochloride] gave a melting point of 70 to 80 °C.

In turn, `Cc1nn(C/C(F)=C/CN)c(C)c1Cc1ccc(S(=O)(=O)N2CCCC2)cc1` (as salt: hydrochloride) [Compound 7, (Z)-4-(3,5-dimethyl-4-(4-(pyrrolidin-1-ylsulfonyl)benzyl)-1H-pyrazol-1-yl)-3-fluorobut-2-en-1-amine hydrochloride] came in with a melting point of 181 to 184 °C.

For `Cc1nn(C/C(F)=C/CN)c(C)c1Cc1ccc(S(C)(=O)=O)cc1` (as salt: hydrochloride) [Compound 4, (Z)-4-(3,5-dimethyl-4-(4-(methylsulfonyl)benzyl)-1H-pyrazol-1-yl)-3-fluorobut-2-en-1-amine hydrochloride], the melting point lay within 127 to 137 °C.

In turn, `CNS(=O)(=O)c1cc(F)c(Cn2nc(C)c(C/C(F)=C/CN)c2C)cc1F` (as salt: hydrochloride) [Compound 26, (Z)-4-((4-(4-amino-2-fluorobut-2-en-1-yl)-3,5-dimethyl-1H-pyrazol-1-yl)methyl)-2,5-difluoro-N-methylbenzenesulfonamide hydrochloride] had a melting point of 100 to 103 °C.
